According to patent publication US10898548B2, “Modulators of protein tyrosine phosphatase and uses thereof” (LEUVAS THERAPEUTICS, priority 2015, dated 2021):

Tests used:
human primary monocytes [1] = assay: static adhesion of fMLP-stimulated monocytes to fibrinogen; format: cell-based; parameters: fMLP-triggered static adhesion to fibrinogen: unit not given here; settings: CTRL 100; for fMLP-triggered static adhesion to fibrinogen: monocytes; for fMLP-induced adhesion to fibrinogen: 40 μM P1 or P1-TKIP, 100 μM AG490, 200 μM WHI-P154, 1 hour, 50 nM fMLP 60 sec
Protocol: We investigated the functional effect of PTPRG activation on integrin activation and mediated adhesion by chemoattractants in human primary monocytes and PMNs in a static and flow adhesion assays. Briefly, human primary monocytes or polymorphonuclear cells were suspended at 5×10^6/ml in standard adhesion buffer. Adhesion assays were performed on 18-well glass slides coated with 1 mg/ml human fibrinogen or with 1 μg/ml human ICAM-1 in PBS; 20 μl of cell suspension were added to the coated wells and stimulated for 1 min at 37° C. with 5 μl of fMLP, 0.05 μM final concentration. After rapid washing, adherent cells were fixed in ice-cold 1.5% glutaraldehyde in PBS, and still images of adherent cells in 0.2 mm^2 fields were acquired al 20× phase contrast magnification, NA 0.40, with a charge-coupled device camera (ICD-42B; Ikegami) connected to an inverted microscope (IX50; Olympus). Image acquisition and computer-assisted enumeration of adherent cells were performed with ImageJ (National Institute of Health). […]
(§1) To evaluate whether JAK2 mediates chemoattractant-induced adhesion of human monocytes to beta-2 integrin substrates human monocytes were treated control buffer or P1 or with the three JAK inhibitors. Briefly, human monocytes were treated with buffer (CTRL=control), or 40 μM P1 or P1-TKIP peptides, 100 μM AG490 or 200 μM WHI-P154 for 1 hour at 37° C. and stimulated with 50 nM fMLP for 60 sec.; data are mean and standard deviation (SD) of 6 experiments in triplicate.

LFA-1 = LFA-1 high affinity state detection with 327C mAb; format: cell-based, human; settings: CTRL 100; for LFA-1 high affinity state, percentages of fold-increase over control: 50 μM TAT peptides or 0.5 μM TAT-ICD, 1 hour, 50 nM fMLP 60 seconds; for LFA-1 high affinity state, percentages of fold increases over the control: 40 μM P1 or P1-TKIP, 100 μM AG490, 200 μM WHI-P154, 1 hour, 50 nM fMLP 60 sec; for LFA-1 high affinity state, mean fluorescence intensity relative to the fMLP-stimulated control: monocytes, 50 nM fMLP 1 min, concentration not given
Protocol: The ability of P1-WD to inhibit triggering of LFA-1 to a high-affinity state was assessed using a specific reporter monoclonal antibody 327C, which detects the fully extended LFA-1 conformational epitope corresponding to heterodimer high affinity state. Briefly, freshly isolated human monocytes were suspended in standard adhesion buffer at 2×10^6/ml were stimulated under stirring at 37° C. for 1 min with 50 nM fMLP in the presence of 10 µg/ml 327C mAb. After rapid washing, the cells were stained with FITC-conjugated secondary antibody and analyzed by cytofluorimetric quantification (Table 4). Data are mean fluorescence intensity measured by flow cytometry relative to the fMLP-stimulated control (CTRL) cells.
The ability of TAT-ICD to trigger the high affinity state of LFA-1 was tested as described in Example 2, Table 4 and the results are in Table 8. Human monocytes were treated with buffer (CTRL), 50 μM TAT peptides, or 0.5 μM TAT-ICD for 1 hour at 37° C. and stimulated with 50 nM fMLP for 60 seconds. Data are the percentages of fold-increase over control; mean values of 6 experiments
Briefly, LFA-1 high affinity state detection. Human monocytes were treated with buffer (CTRL=control), 40 μM P1 or P1-TKIP peptides, 100 μM AG490 or 200 μM WHI-P154 for 1 hour at 37° C. and stimulated with 50 nM fMLP for 60 sec. LFA-1 high affinity state conformer was detected by cytofluorimetric analysis with 327C antibody. Shown are percentages of fold increases over the control; mean values of 5 experiments.

human primary monocytes [2] = assay: static adhesion of fMLP-stimulated monocytes to ICAM-1; format: cell-based; settings: CTRL 100; for fMLP-triggered static adhesion to ICAM-1: monocytes; for fMLP-induced adhesion to ICAM-1: 40 μM P1 or P1-TKIP, 100 μM AG490, 200 μM WHI-P154, 1 hour, 50 nM fMLP 60 sec
Protocol: We investigated the functional effect of PTPRG activation on integrin activation and mediated adhesion by chemoattractants in human primary monocytes and PMNs in a static and flow adhesion assays. Briefly, human primary monocytes or polymorphonuclear cells were suspended at 5×10^6/ml in standard adhesion buffer. Adhesion assays were performed on 18-well glass slides coated with 1 mg/ml human fibrinogen or with 1 μg/ml human ICAM-1 in PBS; 20 μl of cell suspension were added to the coated wells and stimulated for 1 min at 37° C. with 5 μl of fMLP, 0.05 μM final concentration. After rapid washing, adherent cells were fixed in ice-cold 1.5% glutaraldehyde in PBS, and still images of adherent cells in 0.2 mm^2 fields were acquired al 20× phase contrast magnification, NA 0.40, with a charge-coupled device camera (ICD-42B; Ikegami) connected to an inverted microscope (IX50; Olympus). Image acquisition and computer-assisted enumeration of adherent cells were performed with ImageJ (National Institute of Health).
We then investigated the functional effect of TAT-ICD on integrin activation and mediated adhesion by chemoattractants. Static adhesion assays were performed as described in Example 2. […] Data are mean number of adherent cells in 5 experiments in triplicate.
as §1
Human primary monocytes were isolated from buffy coats from healthy donors and pre-incubated for 30 minutes at room temperature with our without 0.075 micromolar PTPX. Standard adhesion assays on ICAM-1 coated glass slides. Cell suspensions were added to the coated wells for 1 minute, stimulated for 1 minute at 37° C. with […] fMLP. Non-adherent cells were washed away and adherent cells were fixed in ice-cold 1.5% glutaraldehyde in PBS and adherent cells were counted using computer assisted automatic quantification. Data are from a representative experiment and are the mean and standard deviation of 24 measurements per condition (Table 35).

human primary monocytes [3] = assay: underflow adhesion of monocytes on E-selectin/ICAM-1 (BioFlux); format: cell-based; settings: for arrest 1 sec, flow assay / arrest 10 sec, flow assay / rolling cells, flow assay: Table 3, concentration not given; for arrest 1 sec, flow assay: CTRL 24; for rolling cells, flow assay: CTRL 50
Protocol: Flow-adhesion assays were also performed to test the ability of the P1-WD peptide to inhibit adhesion of human monocytes under flow conditions. Briefly, Human primary monocytes were suspended at 1×10^6/ml in standard adhesion. Cell behavior in underflow conditions was analyzed with the BioFlux 200 system (Fluxion Biosciences). 48-well plate microfluidics were first co-coated overnight at room temperature with 2.5 μg/ml human E-selectin and 5 μg/ml human ICAM-1 in PBS. Immediately before use, microfluidic channels were washed with PBS and then coated with 10 nM fMLP in PBS for 3 h at room temperature. After extensive washing of microfluidics with adhesion buffer, cells were fluxed at 2 dyne/cm^2 wall shear stress and the behavior of interacting cells was digitally recorded with a fast CCD videocamera (25 frames/s). Single areas of 0.2 mm^2 were recorded for at least 120 s. Interactions of 40 ms or longer were considered significant and scored. Cells that remained firmly adherent for at least 1 s were considered fully arrested. Cells arrested for at least 1 s and then detached, or for 10 s and then remained adherent, were scored separately and plotted as independent groups. Interacting cells behaviors were automatically quantified with BeQuanti.
Briefly, human monocytes were treated with buffer (CTRL), 50 μM TAT peptides, or 0.5 μM TAT-ICD for 1 hour at 37° C. Data are percentages of rolling and arrested cells for the indicated times over total interacting cells; mean values of 4 experiments.
Briefly, Human monocytes were treated with buffer (CTRL=control), 100 μM AG490, 40 μM P1 or P1-TKIP peptides or 200 μM WHI-P154 for 1 hour at 37° C. Shown are percentages of rolling and arrested cells for the indicated times over total interacting cells; mean values of 5 experiments; errors bars are SDs.

[4] = 50 μM TAT peptides or 0.5 μM TAT-ICD, 1 hour at 37° C., CTRL 12
[5] = 50 μM TAT peptides or 0.5 μM TAT-ICD, 1 hour at 37° C., CTRL 22
[6] = 50 μM TAT peptides or 0.5 μM TAT-ICD, 1 hour at 37° C., CTRL 66
[7] = 100 μM AG490, 40 μM P1 or P1-TKIP, 200 μM WHI-P154, 1 hour, CTRL 26
[8] = 100 μM AG490, 40 μM P1 or P1-TKIP, 200 μM WHI-P154, 1 hour, CTRL 34
[9] = 100 μM AG490, 40 μM P1 or P1-TKIP, 200 μM WHI-P154, 1 hour, CTRL 40
[10] = control peptide, concentration not given

Compound | fMLP-triggered static adhesion to fibrinogen (human primary monocytes [1]; 0.5 μM) | fMLP-triggered static adhesion to fibrinogen (human primary monocytes [1]; 1 μM) | LFA-1 high affinity state, percentages of fold-increase over control (LFA-1) | fMLP-triggered static adhesion to ICAM-1 (human primary monocytes [2]; 0.5 μM) | fMLP-triggered static adhesion to ICAM-1 (human primary monocytes [2]; 1 μM) | rolling cells over total interacting cells, flow assay (human primary monocytes [3]; [4]) | cells arrested 1 sec over total interacting cells, flow assay (human primary monocytes [3]; [5]) | cells arrested 10 sec over total interacting cells, flow assay (human primary monocytes [3]; [6]) | fMLP-induced adhesion to fibrinogen (human primary monocytes [1]) | LFA-1 high affinity state, percentages of fold increases over the control (LFA-1) | fMLP-induced adhesion to ICAM-1 (human primary monocytes [2]) | cells arrested 10 sec over total interacting cells, flow assay (human primary monocytes [3]; [7]) | cells arrested 1 sec over total interacting cells, flow assay (human primary monocytes [3]; [8]) | rolling cells over total interacting cells, flow assay (human primary monocytes [3]; [9]) | LFA-1 high affinity state, mean fluorescence intensity relative to the fMLP-stimulated control (LFA-1) | arrest 1 sec, flow assay (human primary monocytes [3]) | arrest 10 sec, flow assay (human primary monocytes [3]; CTRL 26) | rolling cells, flow assay (human primary monocytes [3]) | further results
TAT (GRKKRRQRRRPPQ; listed as Homo sapiens) [reference compound] | 100 | 98 | 85.3% | 100 | 110 | 14% | 25% | 61% | – | – | – | – | – | – | – | – | – | – | –
TAT-ICD: fusion recombinant protein SEQ ID 5: PTPRG intracellular domain aa 797-1445 fused to 13 aa TAT sequence | 20.1 | 14.0 | 24.3% | 14 | 10 | 79% | 10% | 11% | – | – | – | – | – | – | – | – | – | – | fMLP-triggered static adhesion to fibrinogen (human primary monocytes [1]; 0.01 μM): 45.4; fMLP-triggered static adhesion to fibrinogen (human primary monocytes [1]; 0.05 μM): 35.5; fMLP-triggered static adhesion to fibrinogen (human primary monocytes [1]; 0.10 μM): 27.9; fMLP-triggered static adhesion to ICAM-1 (human primary monocytes [2]; 0.01 μM): 48; fMLP-triggered static adhesion to ICAM-1 (human primary monocytes [2]; 0.05 μM): 36; fMLP-triggered static adhesion to ICAM-1 (human primary monocytes [2]; 0.10 μM): 30
COc1cc2ncnc(Nc3ccc(O)c(Br)c3)c2cc1OC [WHI-P154] | – | – | – | – | – | – | – | – | 18% | 58% | 6.4% | 14% | 20% | 66% | – | – | – | – | –
P1-WD: fusion Trojan peptide SEQ ID 3: Penetratin, glycine, PTPRG wedge domain aa 831-856; RQIKIWFQNRRMKWKKGKQFVKHIGELYSNNQHGFSEDFEEVQ (listed as Homo sapiens) | – | – | – | – | – | – | – | – | – | – | – | – | – | – | 22 | 9 | 11 | 80 | fMLP-triggered static adhesion to fibrinogen (human primary monocytes [1]; P1-WD 10 micromolar): 41; fMLP-triggered static adhesion to fibrinogen (human primary monocytes [1]; P1-WD 25 micromolar): 18; fMLP-triggered static adhesion to fibrinogen (human primary monocytes [1]; P1-WD 50 micromolar): 16; fMLP-triggered static adhesion to ICAM-1 (human primary monocytes [2]; P1-WD 10 micromolar): 78; fMLP-triggered static adhesion to ICAM-1 (human primary monocytes [2]; P1-WD 25 micromolar): 40; fMLP-triggered static adhesion to ICAM-1 (human primary monocytes [2]; P1-WD 50 micromolar): 19
N#C/C(=C/c1ccc(O)c(O)c1)C(=O)NCc1ccccc1 [AG490] | – | – | – | – | – | – | – | – | 32.8% | 66% | 23.5% | 10% | 20% | 70% | – | – | – | – | –
P1: Penetratin delivery peptide, 16 aa RQIKIWFQNRRMKWKK (SEQ ID 4), control [reference compound] | – | – | – | – | – | – | – | – | 110% | 90% | 101% | 30% | 26% | 44% | 91 | 32 | 30 | 38 | fMLP-triggered static adhesion to fibrinogen (human primary monocytes [1]; [10]): 94; fMLP-triggered static adhesion to ICAM-1 (human primary monocytes [2]; [10]): 102
